The values that follow are results of earlier work, collected in US5756661A, “Pentaclethra macroloba derived substances having insecticide, agglutination and aminopeptidase inhibition activity” (Pioneer Hi-Bred International, Inc., priority 1996, dated 1998).

The data set concerns aminopeptidases. As to conditions: references 13, 1.

Take `CC(C)C[C@H](NC(=O)[C@@H](O)[C@H](N)Cc1ccccc1)C(=O)O` [bestatin]: the “inhibition of the activity of several aminopeptidases” value was “completely inhibit”.

With `CC(C)C[C@@H](N)[C@H](O)C(=O)N[C@H](C(=O)N[C@H](C(=O)N[C@@H](CC(=O)O)C(=O)O)C(C)C)C(C)C` [amastatin], the “inhibition of the activity of several aminopeptidases” value is recorded as “completely inhibit”.
